Test results reported in US8846704B2, “Thiopyrimidine-based compounds and uses thereof” (YM Biosciences Austraila Pty Ltd, priority 2007, dated 2014).

How the values were obtained:
Assay type in all cases: cell-based
BaF3 TELJAK3 cells = target: T1, BaF3 TELJAK3 cells (Homo sapiens, UniProt P52333); assay: Cellular screening, BaF3 TEL:JAK3 cells, Alamar Blue; conditions: 40 hr, read-out: BafT_J3 IC50_nM
T1 construct: fused on or other part: TEL (ETV6) N-terminal part, coding nucleotides 1-487, serves as the oligomerising partner; It is fused through a Sal I site to the JAK3 kinase domain and expressed from pTRE2 in BaF3 cells bearing pTET-off; P41212 (Transcription factor ETV6)
T1 sequence (P52333 1-1124): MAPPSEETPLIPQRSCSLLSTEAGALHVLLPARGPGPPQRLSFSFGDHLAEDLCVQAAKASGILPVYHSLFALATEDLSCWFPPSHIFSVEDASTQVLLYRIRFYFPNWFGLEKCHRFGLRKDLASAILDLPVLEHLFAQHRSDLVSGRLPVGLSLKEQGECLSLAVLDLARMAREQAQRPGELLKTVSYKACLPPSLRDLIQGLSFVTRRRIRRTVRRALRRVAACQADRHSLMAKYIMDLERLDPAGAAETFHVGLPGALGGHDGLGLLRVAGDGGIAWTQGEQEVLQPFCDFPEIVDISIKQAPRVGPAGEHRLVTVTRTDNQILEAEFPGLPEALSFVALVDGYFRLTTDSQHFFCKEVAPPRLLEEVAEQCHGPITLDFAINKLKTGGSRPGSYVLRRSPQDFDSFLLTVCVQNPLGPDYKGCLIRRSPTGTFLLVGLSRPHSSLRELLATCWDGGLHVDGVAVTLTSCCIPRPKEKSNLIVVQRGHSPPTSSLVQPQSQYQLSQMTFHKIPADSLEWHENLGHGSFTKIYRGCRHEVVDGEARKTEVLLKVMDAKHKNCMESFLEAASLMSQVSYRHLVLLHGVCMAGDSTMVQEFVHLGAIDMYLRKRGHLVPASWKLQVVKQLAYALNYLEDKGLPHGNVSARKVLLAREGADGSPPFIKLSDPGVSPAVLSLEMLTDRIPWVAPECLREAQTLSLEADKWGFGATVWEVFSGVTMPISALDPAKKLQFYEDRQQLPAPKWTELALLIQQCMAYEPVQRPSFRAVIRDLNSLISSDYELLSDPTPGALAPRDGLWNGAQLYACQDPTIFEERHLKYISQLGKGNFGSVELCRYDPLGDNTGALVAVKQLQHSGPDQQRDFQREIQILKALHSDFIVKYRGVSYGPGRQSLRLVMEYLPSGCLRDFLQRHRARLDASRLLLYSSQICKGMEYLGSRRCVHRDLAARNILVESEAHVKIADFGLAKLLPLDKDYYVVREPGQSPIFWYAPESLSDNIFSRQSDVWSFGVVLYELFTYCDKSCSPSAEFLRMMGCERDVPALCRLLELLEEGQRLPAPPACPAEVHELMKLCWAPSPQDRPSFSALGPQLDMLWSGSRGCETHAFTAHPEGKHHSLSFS
Procedure, shortened: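 BaF3 cells carrying pTET-off and a TEL–JAK3 kinase-domain fusion, selected for growth-factor independence, were grown in DMEM with 10% Tet-approved FBS without WEHI 3B medium. Cells were exposed to compounds for 40 h at 37 °C, 5% CO2. Viability was read with Alamar Blue (4–6 h) at 544 nm.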

BaF3 wild-type cells = assay: Cellular screening, BaF3 wild-type cells, Alamar Blue; conditions: Mus musculus, 40 hr, read-out: BAF3wt IC50_nM
Procedure, shortened: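 Cells were cultured in DMEM with 10% FCS and 10% WEHI 3B conditioned medium, and suspensions were prepared at 1.1× final (50,000–200,000 cells/mL). Compounds from 20 μM dilution plates were added at 10× final and incubated for 40 hr at 37° C, 5% CO2. Alamar Blue was then added for 4–6 hours and read at 544 nm.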

CTLL2 = assay: Cellular screening, CTLL2 cells, Alamar Blue; conditions: Mus musculus, CTLL-2, read-out: CTLL2 IC50_nM
Procedure, shortened: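 CTLL2 cells in late log phase incubated with compound for 40 hr at 37° C, 5% CO2. Viability then read at 544 nm after a further 4-6 hours with Alamar Blue.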

Cc1cnc(Nc2ccc(N3CCOCC3)cc2)nc1Sc1ccc(NC(=O)CSCC(=O)O)cc1 [Compound 230, 2-(2-(4-(5-methyl-2-(4-morpholinophenylao)pyrimidin-4-ylthio)phenylao)-2-oxoethylthio)acetic acid]
GI50 (BaF3 TELJAK3 cells): > 20 µM | IC50 (BaF3 wild-type cells): > 20 µM | IC50 (CTLL2): > 20 µM

C=CC(=O)Nc1cccc(Sc2ccnc(Nc3cccc(N4CCOCC4)c3)n2)c1 [Compound 110, N-(3-(2-(3-morpholinophenylao)pyrimidin-4-ylthio)phenyl)acrylamide]
GI50 (BaF3 TELJAK3 cells): < 1 µM | IC50 (BaF3 wild-type cells): < 20 µM | IC50 (CTLL2): < 5 µM

Cc1cnc(Nc2ccc(N3CCOCC3)cc2)nc1Sc1ccc(N)cc1Cl [Compound 251, 4-(4-ao-2-chlorophenylthio)-5-methyl-N-(4-morpholinophenyl)pyrimidin-2-ae]
GI50 (BaF3 TELJAK3 cells): > 20 µM | IC50 (BaF3 wild-type cells): > 20 µM | IC50 (CTLL2): > 20 µM

Cc1cnc(Nc2ccc(N3CCOCC3)cc2)nc1Sc1c(C)cc(N)cc1C [Compound 165, 4-(4-ao-2,6-dimethylphenylthio)-5-methyl-N-(4-morpholinophenyl)pyrimidin-2-ae]
GI50 (BaF3 TELJAK3 cells): > 20 µM | IC50 (BaF3 wild-type cells): > 20 µM | IC50 (CTLL2): > 20 µM

C=CC(=O)Nc1ccc(Sc2ccnc(Nc3ccc(N4CCOCC4)cc3)n2)cc1 [Compound 25, N-(4-(2-(4-morpholinophenylamino)pyrimidin-4-ylthio)phenyl)acrylamide]
GI50 (BaF3 TELJAK3 cells): < 1 µM | IC50 (BaF3 wild-type cells): > 20 µM | IC50 (CTLL2): < 1 µM

Cc1cnc(Nc2ccc(N3CCN(C)CC3)cc2)nc1Sc1ccc(N)cc1 [Compound 244, 4-(4-aophenylthio)-5-methyl-N-(4-(4-methylpiperazin-1-yl)phenyl)pyrimidin-2-ae]
GI50 (BaF3 TELJAK3 cells): < 5 µM | IC50 (BaF3 wild-type cells): < 5 µM | IC50 (CTLL2): < 5 µM

Cc1cnc(Nc2ccc(N3CCOCC3)cc2)nc1Sc1ccc(N2C(=O)CSCC2=O)cc1 [Compound 231, 4-(4-(5-methyl-2-(4-morpholinophenylao)pyrimidin-4-ylthio)phenyl)thiomorpholine-3,5-dione]
GI50 (BaF3 TELJAK3 cells): < 20 µM | IC50 (BaF3 wild-type cells): > 20 µM | IC50 (CTLL2): < 20 µM

N#Cc1ncn(Cc2ccc(Sc3ccnc(Nc4ccc(N5CCOCC5)cc4)n3)cc2)c1C#N [Compound 201, 1-(4-(2-(4-morpholinophenylao)pyrimidin-4-ylthio)benzyl)-1H-imidazole-4,5-dicarbonitrile]
GI50 (BaF3 TELJAK3 cells): < 5 µM | IC50 (BaF3 wild-type cells): < 5 µM | IC50 (CTLL2): < 5 µM

CNC(=O)/C=C\C(=O)Nc1ccc(Sc2nc(Nc3ccc(N4CCOCC4)cc3)ncc2C)cc1 [Compound 389, N1-methyl-N4-(4-(5-methyl-2-(4-morpholinophenylao)pyrimidin-4-ylthio)phenyl)maleamide]
GI50 (BaF3 TELJAK3 cells): < 1 µM | IC50 (BaF3 wild-type cells): < 20 µM | IC50 (CTLL2): < 1 µM

C=CC(=O)Nc1ccc(Sc2nc(Nc3cccc(N4CCOCC4)c3)ncc2C)cc1 [Compound 237, N-(4-(5-methyl-2-(3-morpholinophenylao)pyrimidin-4-ylthio)phenyl)acrylamide]
GI50 (BaF3 TELJAK3 cells): < 1 µM | IC50 (BaF3 wild-type cells): < 1 µM | IC50 (CTLL2): < 1 µM

C=CC(=O)Nc1ccc(Sc2nc(Nc3ccc(N4CCOCC4)cc3)ncc2F)cc1 [Compound 268, N-(4-(5-fluoro-2-(4-morpholinophenylao)pyrimidin-4-ylthio)phenyl)acrylamide]
GI50 (BaF3 TELJAK3 cells): < 1 µM | IC50 (BaF3 wild-type cells): > 20 µM | IC50 (CTLL2): < 1 µM

C=CC(=O)Nc1cccc(Sc2ccnc(Nc3ccc(N4CCOCC4)cc3)n2)c1 [Compound 23, N-(3-(2-(4-morpholinophenylamino)pyrimidin-4-ylthio)phenyl)acrylamide]
GI50 (BaF3 TELJAK3 cells): < 1 µM | IC50 (BaF3 wild-type cells): < 20 µM | IC50 (CTLL2): < 1 µM

C=CC(=O)Nc1ccc(Sc2nc(Nc3cccc(CO)c3)ncc2C)cc1 [Compound 280, N-(4-(2-(3-(hydroxymethyl)phenylao)-5-methylpyrimidin-4-ylthio)phenyl)acrylamide]
GI50 (BaF3 TELJAK3 cells): < 1 µM | IC50 (BaF3 wild-type cells): < 20 µM | IC50 (CTLL2): < 1 µM

C=CC(=O)Nc1ccc(Sc2ccnc(Nc3cc(C)cc(C)c3)n2)cc1 [Compound 82, N-(4-(2-(3,5-dimethylphenylao)pyrimidin-4-ylthio)phenyl)acrylamide]
GI50 (BaF3 TELJAK3 cells): < 5 µM | IC50 (BaF3 wild-type cells): < 20 µM | IC50 (CTLL2): < 20 µM

Nc1ccc(Sc2nc(Nc3cccc(N4CCOCC4)c3)ncc2I)cc1 [Compound 264, 4-(4-aophenylthio)-5-iodo-N-(3-morpholinophenyl)pyrimidin-2-ae]
GI50 (BaF3 TELJAK3 cells): < 5 µM | IC50 (BaF3 wild-type cells): < 5 µM | IC50 (CTLL2): < 5 µM

C=CC(=O)Nc1ccc(Sc2ccnc(Nc3ccc(O)cc3)n2)cc1 [Compound 276, N-(4-(2-(4-hydroxyphenylao)pyrimidin-4-ylthio)phenyl)acrylamide]
GI50 (BaF3 TELJAK3 cells): < 1 µM | IC50 (BaF3 wild-type cells): < 20 µM | IC50 (CTLL2): < 1 µM

Cc1cc(Sc2nc(Nc3ccc(N4CCOCC4)cc3)ncc2C)ccc1N [Compound 255, 4-(4-ao-3-methylphenylthio)-5-methyl-N-(4-morpholinophenyl)pyrimidin-2-ae]
GI50 (BaF3 TELJAK3 cells): < 20 µM | IC50 (BaF3 wild-type cells): < 20 µM | IC50 (CTLL2): > 20 µM

C=CC(=O)Nc1ccc(Sc2nc(Nc3cccc(N4CCOCC4)c3)ncc2F)cc1 [Compound 267, N-(4-(5-fluoro-2-(3-morpholinophenylao)pyrimidin-4-ylthio)phenyl)acrylamide]
GI50 (BaF3 TELJAK3 cells): < 1 µM | IC50 (BaF3 wild-type cells): < 5 µM | IC50 (CTLL2): < 1 µM

Cc1cnc(Nc2ccc(N3CCOCC3)cc2)nc1Sc1ccc(N2C(=O)C=C(Br)C2=O)cc1 [Compound 382, 3-bromo-1-(4-(5-methyl-2-(4-morpholinophenylao)pyrimidin-4-ylthio)phenyl)-1H-pyrrole-2,5-dione]
GI50 (BaF3 TELJAK3 cells): < 20 µM | IC50 (BaF3 wild-type cells): < 20 µM | IC50 (CTLL2): < 20 µM

OCc1cccc(Sc2ccnc(Nc3ccc(N4CCOCC4)cc3)n2)c1 [Compound 62, (3-(2-(4-Morpholinophenylamino)pyrimidin-4-ylthio)phenyl)methanol]
GI50 (BaF3 TELJAK3 cells): < 20 µM | IC50 (BaF3 wild-type cells): < 20 µM | IC50 (CTLL2): < 20 µM

C=CC(=O)Nc1ccc(Sc2nc(Nc3cccc(NS(C)(=O)=O)c3)ncc2C)cc1 [Compound 288, N-(4-(5-methyl-2-(3-(methylsulfonamido)phenylao)pyrimidin-4-ylthio)phenyl)acrylamide]
GI50 (BaF3 TELJAK3 cells): < 1 µM | IC50 (BaF3 wild-type cells): < 20 µM | IC50 (CTLL2): < 1 µM

N#CCC(=O)Nc1cccc(Sc2ccnc(Nc3ccc(N4CCOCC4)cc3)n2)c1 [Compound 24, N-(3-(2-(4-morpholinophenylamino)pyrimidin-4-ylthio)phenyl)-2-cyanoacetamide]
GI50 (BaF3 TELJAK3 cells): < 20 µM | IC50 (BaF3 wild-type cells): < 20 µM | IC50 (CTLL2): < 20 µM

C=CC(=O)Nc1ccc(Sc2nc(Nc3ccc(N4CCN(C)CC4)cc3)ncc2C)cc1 [Compound 239, N-(4-(5-methyl-2-(4-(4-methylpiperazin-1-yl)phenylao)pyrimidin-4-ylthio)phenyl)acrylamide]
GI50 (BaF3 TELJAK3 cells): < 1 µM | IC50 (BaF3 wild-type cells): < 5 µM | IC50 (CTLL2): < 1 µM

C=CC(=O)Nc1cccc(Nc2nccc(Sc3ccccc3)n2)c1 [Compound 16, N-(3-(4-(phenylthio)pyrimidin-2-ylamino)phenyl)acrylamide]
GI50 (BaF3 TELJAK3 cells): < 1 µM | IC50 (BaF3 wild-type cells): < 20 µM | IC50 (CTLL2): < 5 µM
